PubChem BioAssay (NCI)
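Five concentrations, 48 hours, 96-well plates. TGI is the concentration that stops growth completely.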

Tests used:
Assay in all cases: growth of human tumour cells (NCI), 48 h
786-0 renal = system: 786-0 renal
HL-60(TB) leukemia = system: HL-60(TB) leukemia
SK-OV-3 ovarian = system: SK-OV-3 ovarian
SN12C renal = system: SN12C renal
A498 renal = system: A498 renal
OVCAR-4 ovarian = system: OVCAR-4 ovarian
ACHN renal = system: ACHN renal
OVCAR-8 ovarian = system: OVCAR-8 ovarian
PC-3 prostate = system: PC-3 prostate
NCI/ADR-RES ovarian = system: NCI/ADR-RES ovarian
IGROV1 ovarian = system: IGROV1 ovarian
SF-295 CNS = system: SF-295 CNS
COLO 205 colon = system: COLO 205 colon
M14 melanoma = system: M14 melanoma
NCI-H226 lung = system: NCI-H226 lung
MOLT-4 leukemia = system: MOLT-4 leukemia
HCT-116 colon = system: HCT-116 colon
SNB-75 CNS = system: SNB-75 CNS
SW-620 colon = system: SW-620 colon
OVCAR-3 ovarian = system: OVCAR-3 ovarian
MDA-MB-231 breast = system: MDA-MB-231 breast
SK-MEL-28 melanoma = system: SK-MEL-28 melanoma
MCF7 breast = system: MCF7 breast
CCRF-CEM leukemia = system: CCRF-CEM leukemia
SK-MEL-5 melanoma = system: SK-MEL-5 melanoma
BT-549 breast = system: BT-549 breast
T-47D breast = system: T-47D breast
SF-268 CNS = system: SF-268 CNS
MDA-MB-435 = system: MDA-MB-435
EKVX NSCLC = system: EKVX NSCLC
HS 578T breast = system: HS 578T breast
A549 NSCLC = system: A549 NSCLC
OVCAR-5 ovarian = system: OVCAR-5 ovarian
RPMI-8226 leukemia = system: RPMI-8226 leukemia
SR leukemia = system: SR leukemia
SK-MEL-2 melanoma = system: SK-MEL-2 melanoma
RXF 393 renal = system: RXF 393 renal
KM12 colon = system: KM12 colon
HCT-15 colon = system: HCT-15 colon
CAKI-1 renal = system: CAKI-1 renal
MALME-3M melanoma = system: MALME-3M melanoma
UACC-62 melanoma = system: UACC-62 melanoma
MDA-N = system: MDA-N
NCI-H23 lung = system: NCI-H23 lung
HT29 colon = system: HT29 colon
NCI-H460 lung = system: NCI-H460 lung
SNB-19 CNS = system: SNB-19 CNS
LOX IMVI melanoma = system: LOX IMVI melanoma
NCI-H522 lung = system: NCI-H522 lung
U251 CNS = system: U251 CNS
K-562 leukemia = system: K-562 leukemia
HOP-62 NSCLC = system: HOP-62 NSCLC
HCC-2998 colon = system: HCC-2998 colon
DU-145 prostate = system: DU-145 prostate
UO-31 renal = system: UO-31 renal
UACC-257 melanoma = system: UACC-257 melanoma
TK-10 renal = system: TK-10 renal
HOP-92 NSCLC = system: HOP-92 NSCLC
SF-539 CNS = system: SF-539 CNS

Measured: TGI

CC/C=C/C[C@H](O)[C@H]1C[C@H]2O[C@H](CC(=O)OC)C[C@H]2O1
not listed: UACC-257 melanoma | TK-10 renal | HOP-92 NSCLC | SF-539 CNS
> 100 µM: all other assays above

O=C1c2ccccc2C(=O)c2c(NCC3CO3)ccc(NCC3CO3)c21 (stereo not given)
2.58 µM: MDA-MB-435
33.3 µM: RPMI-8226 leukemia
> 51.5 µM: EKVX NSCLC
11.8 µM: RXF 393 renal
7.79 µM: CAKI-1 renal
9.61 µM: PC-3 prostate
> 39.3 µM: SNB-19 CNS
14.8 µM: MDA-MB-231 breast
23.7 µM: SF-295 CNS
34 µM: OVCAR-4 ovarian
29.9 µM: COLO 205 colon
6.04 µM: SW-620 colon
15.9 µM: IGROV1 ovarian
5.57 µM: 786-0 renal
5.13 µM: UO-31 renal
> 81.4 µM: HCC-2998 colon
> 83.9 µM: A498 renal
6.82 µM: SF-539 CNS
1.25 µM: MCF7 breast
14.1 µM: BT-549 breast
11.4 µM: NCI/ADR-RES ovarian
2.49 µM: OVCAR-8 ovarian
8.71 µM: NCI-H23 lung
20.1 µM: NCI-H522 lung
0.0161 µM: LOX IMVI melanoma
2.62 µM: ACHN renal
> 100 µM: SNB-75 CNS | K-562 leukemia
35.4 µM: NCI-H226 lung
28.1 µM: SK-MEL-28 melanoma
2.52 µM: MDA-N
6.44 µM: SK-MEL-5 melanoma
> 27.2 µM: SR leukemia
45 µM: TK-10 renal
> 65.8 µM: OVCAR-5 ovarian
> 47 µM: SK-OV-3 ovarian
> 53.9 µM: NCI-H460 lung
15.3 µM: HS 578T breast
58.8 µM: A549 NSCLC
15.1 µM: OVCAR-3 ovarian
8.38 µM: U251 CNS
2.57 µM: M14 melanoma
23.9 µM: UACC-257 melanoma
18.3 µM: MALME-3M melanoma
> 22.5 µM: HCT-15 colon
2.06 µM: SN12C renal
0.53 µM: MOLT-4 leukemia
30.2 µM: DU-145 prostate
1.21 µM: HCT-116 colon
38 µM: HOP-92 NSCLC
6.96 µM: HOP-62 NSCLC
19.4 µM: KM12 colon
> 42.1 µM: T-47D breast
12.8 µM: HT29 colon

CCOC(=O)C(O)(C(=O)OCC)c1cc(C(C)(C)C)c(O)c(C(C)(C)C)c1
52.5 µM: SF-295 CNS
90.1 µM: COLO 205 colon
87.8 µM: SF-539 CNS
91.3 µM: RPMI-8226 leukemia
98.2 µM: HL-60(TB) leukemia
74.6 µM: SNB-19 CNS
77.1 µM: RXF 393 renal
32.9 µM: SK-MEL-5 melanoma
not listed: NCI-H460 lung | HCC-2998 colon
> 100 µM: all other assays above

CC(C)/C(=N\[N+](C)(C)C)c1ccccc1
> 100 µM: all assays above
